“Also recorded” adds a separate entry of the source.
Legend:
chronic MPTP mouse model [1] = assay: Traction test in chronic MPTP mouse model; type: in vivo, C57/BL mice
Source text: Injection was implemented every 3.5 days for 5 weeks. MPTP was converted into metabolite MPP^+ by monoamine oxidase B in glial cells after crossing the blood-brain barrier. Due to its high affinity for dopamine transporters, MPP^+ can easily enter dopaminergic neurons. By inhibiting the toxic effect of the mitochondrial complex I, it can cause oxidative stress and break intracellular calcium homeostasis, thus causing the apoptosis or necrosis of dopaminergic neurons, and finally achieving the goal of simulating PD. Probenecid was used to prevent the rapid clearance and excretion of MPTP in the brain and kidneys. In the process of model preparation, the amount of probenecid had no significant influence on the content of the dopamine in the brain. After modeling, the mice were administrated (p.o.) with the drug for one month. The two forepaws of the mice were suspended on a horizontal metal wire (5 mm in diameter and 30 cm from the ground), and the time for mice to fall from the metal wire was recorded, wherein a time over 60 seconds was counted as 60 seconds. The mice were trained twice a day before the test. […] Finally, the scores were calculated and the time for the mice to fall from the metal wire were recorded, wherein a time over 60 seconds was counted as 60 seconds.

chronic MPTP mouse model [2] = assay: Morris water maze test in chronic MPTP mouse model; type: in vivo, C57/BL mice; details: Compound A 100 mg/kg/d p.o. for one month; FIG. 2; 100 mg/kg/day
Method: A chronic MPTP (1-methyl-4-phenyl-1,2,3,6-tetrahydropyridine) mouse model was prepared to simulate PD. 250 mg/kg probenecid was intraperitoneally injected into the mice and then 25 mg/kg MPTP was intraperitoneally injected 0.5 hour later. Injection was implemented every 3.5 days for 5 weeks. MPTP was converted into metabolite MPP^+ by monoamine oxidase B in glial cells after crossing the blood-brain barrier. Due to its high affinity for dopamine transporters, MPP^+ can easily enter dopaminergic neurons. […]
The Morris water maze test can measure the changes in cognitive and memory ability. […] A camera with a display system was placed above the water maze, and the computer automatically tracked the timing and recorded the swimming track. […] The videos of the swimming path were recorded by the camera and computer, and the time of finding the platform from the entry point, namely the latency of escaping to the platform, was recorded. […] If they could not find and climb onto the platform in 90 seconds, the mice were artificially guided to find the platform and stay on the platform for 10 seconds, and the latency was recorded as 90 seconds. […] The latency was calculated on the average of four training sessions per day. […]

Structure (SMILES) | suspension time compared with the chronic MPTP model (chronic MPTP mouse model [1]; Pramipexol 0.075 mg/kg/d p.o. for one month after modeling) | cognitive function of PD model animals (water maze latency) (chronic MPTP mouse model [2]) | suspension time compared with the chronic MPTP model control group (chronic MPTP mouse model [1]; Compound A 25 mg/kg/d p.o. for one month after modeling) | suspension score compared with the chronic MPTP model control group (chronic MPTP mouse model [1]; Compound A 25 mg/kg/d p.o. for one month, FIG. 1) | suspension time compared with the chronic MPTP model control group (chronic MPTP mouse model [1]; Compound A 100 mg/kg/d p.o. for one month after modeling) | muscle strength and coordination (conclusion) (chronic MPTP mouse model [1]; chronic MPTP mouse model, dose not given)
CCCN[C@H]1CCc2nc(N)sc2C1 [Pramipexol, reference compound] | decreased | – | – | – | – | –
Cc1c(O)c(O)cc[n+]1[C@@H](CO)Cc1ccccc1 [Compound A, (R)-3,4-dihydroxyl-N-(1′-benzyl-2′-hydroxyethyl)-2-methyl pyridine chloride] | – | may improve the cognitive function; also recorded: partially improve the cognitive function | no significant difference | increased | no significant difference | tendency to improve muscle strength and coordination

From patent publication US12234208B2, “3,4-dihydroxy-n-(1′-benzyl-2′-hydroxyethyl)-2-methylpyridine chloride, and synthesis and use thereof” (HANGZHOU ZEDE PHARMA-TECH CO. LTD., priority 2020, dated 2025)
